Experiment [1] deals with T1, aryl hydrocarbon receptor (mAhR) (Mus musculus, UniProt P30561).
T1 sequence (P30561 10-848): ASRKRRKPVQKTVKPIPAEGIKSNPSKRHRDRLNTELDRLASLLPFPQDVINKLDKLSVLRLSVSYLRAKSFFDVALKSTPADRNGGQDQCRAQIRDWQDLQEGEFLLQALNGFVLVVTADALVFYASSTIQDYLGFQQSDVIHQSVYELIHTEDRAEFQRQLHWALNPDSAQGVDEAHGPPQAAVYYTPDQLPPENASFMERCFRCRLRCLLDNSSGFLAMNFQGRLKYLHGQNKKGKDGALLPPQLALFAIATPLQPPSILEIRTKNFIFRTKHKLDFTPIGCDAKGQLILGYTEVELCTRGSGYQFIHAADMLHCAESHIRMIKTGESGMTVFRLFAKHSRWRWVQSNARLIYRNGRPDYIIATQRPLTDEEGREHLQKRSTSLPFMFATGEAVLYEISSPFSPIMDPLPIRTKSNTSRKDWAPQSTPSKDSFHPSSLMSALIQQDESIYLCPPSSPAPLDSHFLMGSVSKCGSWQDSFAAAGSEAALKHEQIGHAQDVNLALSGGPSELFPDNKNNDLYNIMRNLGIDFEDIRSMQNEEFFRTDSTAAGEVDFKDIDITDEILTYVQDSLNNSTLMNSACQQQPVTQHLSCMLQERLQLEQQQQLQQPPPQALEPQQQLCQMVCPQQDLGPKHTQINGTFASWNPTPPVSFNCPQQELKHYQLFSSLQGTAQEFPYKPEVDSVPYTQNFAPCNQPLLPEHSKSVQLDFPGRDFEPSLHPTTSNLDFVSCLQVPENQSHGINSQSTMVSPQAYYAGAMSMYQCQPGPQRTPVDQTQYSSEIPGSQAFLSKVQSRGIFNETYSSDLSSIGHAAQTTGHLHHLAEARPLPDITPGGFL
In words: [3H]TCDD. It is filed as binding.

In experiment [2] the target is T2, aryl hydrocarbon receptor (mAhR) (Mus musculus, UniProt P30561, S359A).
T2 sequence (P30561 10-848 S359A): T1 sequence (P30561 10-848) with S350A
In words: [3H]TCDD specific binding, hydroxyapatite assay.

For experiment [3], the target named is T1, aryl hydrocarbon receptor (mAhR). The experiment in a line: competitive [3H]TCDD hydroxyapatite radioligand binding assay. As to conditions: read-out: Experimental IC50 (M), in vitro synthesized mAhR.

Structures are written as SMILES. Where a chain is given by its changes, count along the chain named.

As to `Clc1cc2c(cc1Cl)Oc1cc(Cl)c(Cl)cc1O2` [TCDD, 2,3,7,8-tetrachlorodibenzo-p-dioxin], in experiment [1], the “[3H]TCDD (2 nM) specific binding, hydroxyapatite assay” value is “THS compounds displace [^3H]TCDD from the in vitro synthesized AhR in concentration-dependent manner”. Besides, the “% reduction of binding vs wild type” value in experiment [2] is recorded as ~ 40 % reduction of binding vs wild type.

Regarding `O=[N+]([O-])c1cc(C(F)(F)F)ccc1NCc1ccco1` [THS-020], the 50% inhibitory concentration (IC50) in experiment [3] stood at 4.2e-06 M.

The values above are taken from PMC3263330 (2011).
